Read-outs that look alike come from different tables or passages of the source.
Legend:
[1] = system: MM.1S cells; assay: cells; type: cell-based; settings: Homo sapiens, MM1.S, read-out: percentage of nonviable cells by trypan blue exclusion
Procedure: Assessment of HNK-induced cytotoxicity against patient MM cells: Cytotoxicity of HNK against fresh MM cells was determined as previously determined, see, for example, Mitsiades et al Cancer Cell. 2004; 5:221-230. Fresh MNCs separated from bone marrow samples derived from patients with MM were incubated with PE-conjugated anti-CD138 antibody and/or FITC-conjugated anti-CD38 antibody (BD Biosciences, San Diego, Calif.) for 30 minutes on ice and washed, followed by analysis using EPICS XL flow cytometer (Beckman Coulter, Hialeah, Fla.). A CD38^high fraction enriched for MM cells was determined in side and forward scatter panel in each case. The expression of CD138 on gated cells was also evaluated. After HNK-treatment for 48 h, cells were harvested and percentage of CD38^high cells with or without HNK-treatment was evaluated. […] Cells were stained with propidium iodide (PI; 50 μg/mL; Sigma, St Louis, Mo.), and cell cycle profile was determined by using the program M software on an EPICS XL flow cytometer (Beckman Coulter, Hialeah, Fla.). […] Fluorescence intensity of TUNEL and APO 2.7 staining was determined using on EPICS XL flow cytometer. Cytotoxicity was determined by trypan blue exclusion assay. […] Cell growth and induction of apoptosis were determined both by colorimetric assay and now cytometric detection of APO2.7 after 48 h treatment. […] DNA synthesis was measured by [^3H]-thymidine uptake. […]

[2] = system: HUVEC; assay: direct toxicity against HUVEC (colorimetric assay); type: cell-based, human; settings: 8 ug/ml
[3] = system: RAW 264.7 cells; assay: Osteoclast differentiation assay (RANKL); type: cell-based, mouse; settings: RAW 264.7, 5 mM (printed) honokiol 12 h, 5 nM RANKL
Procedure: (A) RAW 264.7 cells (1×10^4) were plated overnight, pretreated with 5 mM honokiol for 12 h, and then treated with 5 nM RANKL. At 4 and 5 days later, cells were stained for TRAP and evaluated for osteoclastogenesis. Photographs were taken after 5 days of incubation with RANKL. (B) The numbers of TRAP-positive multinucleated osteoclasts (>3 nuclei) per well were counted. (C) H1299 cells (2.5×10^4) were seeded into the upper wells of a Matrigel invasion chamber overnight in the absence of serum, pretreated with […] honokiol for 12 h, treated with 1 nM TNF for 24 h in the presence of 1% serum, and then subjected to invasion assay. The value for no honokiol and no TNF was set to 1.0.
Osteoclast differentiation assay. […] At days 4 and 5, the cells were stained for tartrate-resistant acid phosphatase (TRAP) expression, as previously described (18) using an acid phosphatase kit (Sigma-Aldrich), and the TRAP-positive multinucleated osteoclasts (>3 nuclei) per well were counted.
Honokiol suppresses RANKL-induced osteoclastogenesis. Because RANKL, a member of the TNF superfamily, induces osteoclastogenesis through the activation of NF-kB (Abu-Amer, Y., et al. 1997 Nat. Med. 3:1189-1190), whether honokiol can suppress RANKL-induced osteoclastogenesis was assessed. […]

C=CCc1ccc(O)c(-c2ccc(O)c(CC=C)c2)c1 [HNK, Honokiol]
cytotoxicity at 10 µg/mL ([1]; 24 h): 30.7 ± 5.5%
cytotoxicity at 10 µg/mL [1]: 27.6 ± 6.4%
viability of HUVEC cells [2]: did not affect the viability of HUVEC cells
RANKL-induced osteoclast differentiation (TRAP) [3]: suppressed it

Source: patent US20080300298A1, “Honokiol Derivates For the Treatment of Proliferative Disorders” (priority 2005, published 2008)
